Laboratory results from patent US20240067600A1, “SMALL MOLECULE INHIBITORS OF THE MITOCHONDRIAL PERMEABILITY TRANSITION PORE (mtPTP)” (UNIVERSITY OF KANSAS, priority 2014, published 2024).

Columns and labels:
Assay type in all cases: biochemical, mice
mtPTP = experiment: Calcium retention capacity (CRC) assay on isolated mitochondria; conditions: Table 1, average ± SEM; for Calcium Retention Capacity (CRC/CRC0 at 12.5 μM): 12.5 μM compound; for Calcium Retention Capacity (CRC/CRC0) at 1.56 μM: 1.56 μM compound
Procedure: Assay buffer: 250 mM sucrose, 10 mM MOPS-Tris, 0.01 mM EGTA-Tris, 1.0 mM phosphoric acid-Tris, pH 7.4. • Solution 1. 10 mM glutamate and 5 mM malate in Assay buffer. • Solution 2. 1% DMSO in Solution 2. • Solution 3. 0.5 mg/mL mitochondria and 1.0 μM Calcium Green-5N in Assay Buffer. • Solution 4. 0.25 mM CaCl2).
Protocol Summary: • 1. Freshly isolate mitochondria, prepare solutions according to the recipes in the Reagent Section. • 2. Dispense 100 μL of Solution 2 to Columns 1-2 (negative control) of the 96-well black assay plate (Falcon 353376). • 3. Dispense 200 μL of Solution 1 to Row A Columns 3-12. • 4. Next, dispense 100 μL of Solution 2 to Rows B-H Columns 3-12. • 5. Add 4 μL of 5 mM test compounds in DMSO to Row A Columns 3-12, perform 1:2 serial dilutions Row A to H Columns 3-12. • 6. Finally, dispense 100 μL of Solution 3 in all wells. • 7. Experiment starts. Read Calcium Green-5N fluorescence (excitation 485 nm, emission 538 nm) and perform a train of 4 μL Solution 4 additions with Fluoroskan Ascent FL, Thermo Scientific.

[1] = test system: Mitochondrial Permeability Transition Pore; experiment: Mitochondrial swelling absorbance assay; conditions: Table 1, average ± SEM
Procedure: Mitochondrial Swelling (Hit Validation, Confirmatory Assay, Concentration-Response, AID No. 720722)
Assay buffer: 250 mM sucrose, 10 mM MOPS-Tris, 0.01 mM EGTA-Tris, 1.0 mM phosphoric acid-Tris, pH 7.4 • Solution 1. 5.0 mM glutamate and 2.5 mM malate in Assay buffer. • Solution 2. 80-120 μM CaCl2) depending on mitochondrial activity in Solution 1. Note: Concentration of Ca^2+ in the assay is dependent upon the activity of the isolated mitochondria which is determined via a calcium titration just before each screening batch. A Ca^2+ concentration is used that allows for the arrival at a 2:1 window at the 20 minute time period. • Solution 3. 1% DMSO in Solution 2. • Solution 4. 2.0 mM EGTA-Tris, pH 7.4 in Solution 3. • Solution 5. 0.5 mg/mL mitochondria in Assay Buffer.
Protocol Summary: • 1. Freshly isolate mitochondria, prepare solutions according to the recipes in the reagent section • 2. Dispense 100 μL of Solution 4 to Columns 1-2 and Solution 3 Columns 11-12 (positive and negative controls, respectively) of the 96-well clear assay plate (Falcon 353072) • 3. Dispense 200 μL of Solution 1 to Row A Columns 3-10. • 4. Next, dispense 100 μL of Solution 3 to Rows B-H Columns 3-10. • 5. Add 4 μL of 5 mM test compounds in DMSO to Row A Columns 3-10, perform 1:2 serial dilutions Row A to H Columns 3-10. • 6. Finally, dispense 100 μL of Solution 5 in all wells. The reaction starts. • 7. Keep the plate at room temperature for 20 minutes and then read absorbance at 540 nm on MultiSkan EX, Thermo Scientific.
Concentration-Response Assay to Identify Compounds that Inhibit Mitochondrial Swelling (SAR Assay AID No. 743359)
Assay buffer: 250 mM sucrose, 10 mM MOPS-Tris, 0.01 mM EGTA-Tris, 1.0 mM phosphoric acid, pH 7.4 • Solution 1. 5.0 mM glutamate and 2.5 mM malate in Assay Buffer. • Solution 2. 100-120 μM CaCl2) depending on mitochondrial activity in Solution 1. Note: Concentration of Ca^2+ in the assay is dependent upon the activity of the isolated mitochondria which is determined via a calcium titration just before each screening batch. A Ca^2+ concentration is used that allows for the arrival at a 2:1 window at the 20 minute time period. • Solution 3. 1% DMSO in Solution 2. • Solution 4. 2.0 mM EGTA-Tris, pH 7.4 in Solution 3. • Solution 5. 0.5 mg/mL mitochondria in Assay Buffer.
Protocol Summary: • 1. Freshly isolate mitochondria, prepare solutions according to the recipes in the Reagent Section. • 2. Dispense 100 μL of Solution 4 to Columns 1-2 and Solution 3 Columns 11-12 (positive and negative controls, respectively) of the 96-well clear assay plate (Falcon 353072). • 3. Dispense 200 μL of Solution 1 to Row A Columns 3-10. • 4. Next, dispense 100 μL of Solution 3 to Rows B-H Columns 3-10. • 5. Add 4 μL of 5 mM test compounds in DMSO to Row A Columns 3-10, perform 1:2 serial dilutions Row A to H Columns 3-10. • 6. Finally, dispense 100 μL of Solution 5 in all wells. The reaction starts. • 7. Keep the plate at room temperature for 20 minutes and then read absorbance at 540 nm on MultiSkan EX, Thermo Scientific.

IMM potential = experiment: Rhodamine 123 (Rh123) uptake counterscreen; conditions: Table 1; read-out: Rh123 uptake (EC50);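 further: isolated mitochondria respiring on glutamate plus malate in sucrose MOPS-Tris buffer at pH 7.4, Rh123 added with the organelles, compounds tested across a twofold dilution series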
Procedure: Assay buffer: 250 mM sucrose, 10 mM MOPS-Tris, 0.01 mM EGTA-Tris, 1.0 mM phosphoric acid-Tris, pH 7.4 • Solution 1. 5.0 mM glutamate and 2.5 mM malate in Assay Buffer. • Solution 2. 1% DMSO in Solution 1. • Solution 3. 0.8 μM FCCP (the stock 40 μM in DMSO) in Solution 1. • Solution 4. 0.5 mg/mL mitochondria and 0.8 μM Rh123 in Assay Buffer.
Protocol Summary: • 1. Freshly isolate mitochondria, prepare solutions according to the recipes in the Reagent Section. • 2. Dispense 100 μL of Solution 3 to Columns 1-2 and Solution 2 Columns 11-12 (positive and negative controls, respectively) of the 96-well black assay plate (Falcon 353376). • 3. Dispense 200 μL of Solution 1 to Row A Columns 3-10. • 4. Next, dispense 100 μL of Solution 2 to Rows B-H Columns 3-10. • 5. Add 4 μL of 10 mM test compounds in DMSO to Row A Columns 3-10, perform 1:2 serial dilutions Row A to H Columns 3-10. • 6. Finally, dispense 100 μL of Solution 4 in all wells. The reaction starts. • 7. Keep the plate at room temperature for 5 minutes and then read fluorescence (excitation 485 nm, emission 538 nm) on Fluoroskan Ascent FL, Thermo Scientific.
Concentration-Response Counterscreen Assay to Identify Compounds that Prevent Mitochondrial Swelling Via Interference with the IMM Potential (SAR Assay AID No. 743361)
Assay buffer: 250 mM sucrose, 10 mM MOPS-Tris, 0.01 mM EGTA-Tris, 1.0 mM phosphoric acid-Tris, pH 7.4 • Solution 1. 5.0 glutamate and 2.5 mM malate in Assay Buffer. • Solution 2. 1% DMSO in Solution 1. • Solution 3. 0.8 μM FCCP (the stock 40 μM in DMSO) in Solution 1. • Solution 4. 0.5 mg/mL mitochondria and 0.8 μM Rh123 in Assay Buffer.

| SMILES | Calcium Retention Capacity (CRC/CRC0 at 12.5 μM) (mtPTP) | EC50 [1] [nM] | EC50 (IMM potential) [µM] | Calcium Retention Capacity (CRC/CRC0) at 1.56 μM (mtPTP) | EC50 ([1]; unit inferred) [nM] |
| --- | --- | --- | --- | --- | --- |
| Cc1ccc(Cl)cc1NC(=O)c1ccc(-c2cccc(O)c2)cc1 | 2.59 ± 0.22 | 4710 ± 349 | > 100 | – | – |
| COc1ccc(-c2cc(C(=O)Nc3cccc(Cl)c3Cl)no2)cc1O | – | 108 ± 10 | > 100 | 5.21 ± 0.50 (at 1.56 μM) | – |
| COc1ccc(-c2cc(C(=O)Nc3cccc(Cl)c3C)no2)cc1O | 13.44 ± 0.93 | 0.0283 ± 0.0048 | > 100 | 9.59 ± 0.85 | – |
| Cc1cnc(Cl)cc1NC(=O)c1cc(-c2cccc(O)c2)on1 | 5.51 ± 0.99 | – | > 100 | – | 100 ± 9.6 |
| COc1ccc(-c2cc(C(=O)Nc3cc(Cl)cnc3C)no2)cc1O | 13.47 ± 1.32 | 11 ± 1.1 | > 100 | 10.10 ± 1.14 | – |
| Cc1cc(Cl)cc(NC(=O)c2cc(-c3cccc(O)c3)on2)c1 | 9.34 ± 1.04 | 78 ± 5 | > 100 | – | – |
| O=C(Nc1cccc(Cl)c1)c1cc(-c2ccc(F)c(O)c2)on1 | 10.17 ± 0.69 | 13 ± 2 | > 100 | – | – |
| Cc1ccc(Cl)cc1NC(=O)c1cc(-c2ccc(F)c(O)c2)on1 | 19.28 ± 1.59 | 0.134 ± 0.016 | > 100 | 15.21 ± 1.26 | – |
| O=C(Nc1cc(Cl)ccc1F)c1cc(-c2ccc(F)c(O)c2)on1 | 10.07 ± 0.69 | 9 ± 1.4 | > 100 | – | – |
| Cc1cc(Cl)cc(NC(=O)c2cc(-c3ccc(F)c(O)c3)on2)c1 | 6.08 ± 0.52 | 819 ± 58.9 | > 100 | – | – |
| Cc1ncc(Cl)cc1NC(=O)c1cc(-c2ccc(F)c(O)c2)on1 | 10.69 ± 1.00 | 16 ± 1.9 | > 100 | 9.12 ± 0.88 | – |
| Cc1cnc(Cl)cc1NC(=O)c1cc(-c2ccc(F)c(O)c2)on1 | 3.48 ± 0.51 | 2190 ± 150 | > 100 | – | – |
| Cc1ncc(Cl)cc1NC(=O)c1cc(-c2cccc(O)c2)on1 | 10.09 ± 0.91 | 24 ± 2.2 | > 100 | 6.62 ± 0.89 | – |
| Cc1ccc(Cl)cc1NC(=O)c1cc(-c2cccc(O)c2)on1 | 14.99 ± 1.20 | 3.5 ± 0.7 | > 100 | 9.63 ± 0.29 | – |
| COc1ccc(Cl)cc1C(=O)Nc1ccc(CCN2CCOCC2)cc1 | 1.23 ± 0.02 | 9000 ± 404 | > 100 | – | – |
| O=C(Nc1cccc(Cl)c1Cl)c1cc(-c2cccc(O)c2)on1 | 4.00 ± 0.42 | 12500 ± 668 | > 100 | – | – |
| O=C(Nc1cc(Cl)ccc1Cl)c1cc(-c2cccc(O)c2)on1 | 4.67 ± 0.31 | 1520 ± 51.2 | 38.5 ± 3.98 | – | – |
| COc1c(Cl)cccc1NC(=O)c1cc(-c2cccc(O)c2)on1 | 1.83 ± 0.17 | 42700 ± 2590 | > 100 | – | – |
| O=C(Nc1cc(Cl)cc(Cl)c1)c1cc(-c2cccc(O)c2)on1 | 12.08 ± 1.92 | 190 ± 17 | > 100 | 5.72 ± 0.25 | – |
| O=C(Nc1cccc(Cl)c1)c1cc(-c2ccc(O)cc2)on1 | 3.50 ± 0.57 | 2210 ± 174 | > 100 | – | – |
| N#Cc1ccc(Cl)cc1NC(=O)c1cc(-c2cccc(O)c2)on1 | 13.99 ± 1.50 | 30 ± 2.6 | > 100 | 7.69 ± 0.61 | – |
| O=C(Nc1cc(Cl)ccc1OCc1ccccc1)c1cc(-c2cccc(O)c2)on1 | 1.59 ± 0.33 | 17600 ± 2210 | > 100 | – | – |
| Cc1ccccc1NC(=O)c1cc(-c2cccc(O)c2)on1 | 8.16 ± 0.92 | 30 ± 2.2 | > 100 | – | – |

| SMILES | Calcium Retention Capacity (CRC/CRC0 at 12.5 μM) (mtPTP) | EC50 [1] [nM] | EC50 (IMM potential) [µM] | Calcium Retention Capacity (CRC/CRC0) at 1.56 μM (mtPTP) | EC50 ([1]; unit inferred) [nM] |
| --- | --- | --- | --- | --- | --- |
| Cc1ccccc1NC(=O)c1cc(-c2ccc(O)cc2)on1 | 2.94 ± 0.46 | 2450 ± 148 | > 100 | – | – |
| COc1ccc(-c2cc(C(=O)Nc3cc(Cl)ccc3C)no2)cc1O | 14.44 ± 0.58 | 0.00756 ± 0.00122 | > 100 | 10.02 ± 0.34 | – |
| O=C(Nc1cc(Cl)ccc1F)c1cc(-c2cccc(O)c2)on1 | – | 172 ± 14 | > 100 | 3.77 ± 0.17 (at 1.56 μM) | – |
| Cc1c(Cl)cccc1NC(=O)c1cc(-c2ccc(Cl)c(O)c2)on1 | – | 0.18 ± 0.042 | > 100 | 8.22 ± 0.58 (at 1.56 μM) | – |
| Cc1ncc(Cl)cc1NC(=O)c1cc(-c2ccc(Cl)c(O)c2)on1 | – | 1.34 ± 0.26 | > 100 | 6.91 ± 0.47 (at 1.56 μM) | – |
| Cc1ccc(Cl)cc1NC(=O)c1cc(-c2ccc(Cl)c(O)c2)on1 | – | 2.16 ± 0.45 | > 100 | 6.21 ± 0.66 (at 1.56 μM) | – |
| Cc1ccc(Cl)cc1NC(=O)c1cc(-c2ccc(F)c(O)c2)[nH]n1 | – | 1.4 ± 0.2 | 30.4 ± 5.5 | 10.92 ± 0.74 (at 1.56 μM) | – |
| COc1ccc(-c2cc(C(=O)Nc3cc(Cl)ccc3C)n[nH]2)cc1O | – | 2.4 ± 0.4 | > 100 | 7.51 ± 0.47 (at 1.56 μM) | – |
| Cc1cccc(C)c1NC(=O)c1cc(-c2cccc(O)c2)on1 | – | 12.1 ± 1.4 | > 100 | 8.12 ± 0.59 (at 1.56 μM) | – |
| COc1ccc(-c2cc(C(=O)Nc3cccc(Cl)c3)no2)cc1O | 7.18 ± 0.87 | 35 ± 4.2 | > 100 | – | – |
| O=C(Nc1cc(Cl)ccc1Cl)c1cc(-c2ccc(F)c(O)c2)on1 | 12.15 ± 1.36 | 66 ± 3.2 | > 100 | 6.50 ± 0.77 | – |
| COc1ccc(-c2cc(C(=O)Nc3cc(Cl)ccc3OC)no2)cc1O | 9.89 ± 1.31 | 97 ± 3.4 | > 100 | 6.62 ± 0.84 | – |
| COc1ccc(Cl)cc1NC(=O)c1cc(-c2cccc(O)c2)on1 | 10.89 ± 1.34 | 60 ± 7.6 | > 100 | 6.95 ± 1.15 | – |
| CN(C)c1ccc(Cl)cc1NC(=O)c1cc(-c2cccc(O)c2)on1 | 2.22 ± 0.38 | 1610 ± 866 | > 100 | – | – |
| COc1ccc(-c2cc(C(=O)Nc3cc(Cl)ccc3Cl)no2)cc1O | 9.59 ± 1.29 | 146 ± 11.5 | > 100 | 4.34 ± 0.53 | – |
| COc1ccc(-c2cc(C(=O)Nc3cc(Cl)ccc3F)no2)cc1O | 5.37 ± 0.58 | 217 ± 51.8 | > 100 | – | – |
| Cc1ccc(Cl)cc1NC(=O)c1cc(-c2ccccc2O)on1 | 2.10 ± 0.26 | 6060 ± 748 | > 100 | – | – |
| COc1ccc(-c2cc(C(=O)Nc3cc(Cl)ncc3C)no2)cc1O [drawing 129] | – | – | – | – | 366 ± 47.5 |
| O=C(Nc1cccc(Cl)c1)c1cc(-c2cccc(O)c2)on1 [drawing 166] | 5.47 ± 0.57 | – | – | – | – |
| COc1ccc(Cl)cc1C(=O)Nc1ccc(CCN2CCN(C(=O)OC(C)(C)C)CC2)cc1 [drawing 174] | 1.90 ± 0.11 | – | – | – | – |
| COc1ccc(/C=C/C(=O)Nc2cccc(Cl)c2)cc1O [drawing 175] | 14.02 ± 1.63 | – | – | – | – |
| COc1ccc(-c2cc(C(=O)Nc3cc(Cl)cc(Cl)c3)no2)cc1O [drawing 192] | 3.52 ± 0.44 | – | – | – | – |
